Source: patent publication US20210060016A1, “ANTICANCER AGENT” (JAPANESE FOUNDATION FOR CANCER RESEARCH, priority 2017, published 2021)

What was measured:
tankyrase 1 = target: T1, tankyrase 1 (Homo sapiens, UniProt O95271); experiment: Tankyrase inhibitory activity test (ELISA, auto-poly(ADP-ribosyl)ation), TNKS1; assay type: biochemical; conditions: Flag-tagged tankyrase 1 (SAM+PARP), read-out: TNKS1 (inhibitory activity against tankyrase 1), IC50 rating
T1 construct: tankyrase 1 (1,024-1, 327aa, SAM+PARP); made in house; host or cells: cell-free protein expression system
Description: (§1) The enzymatic activity of tankyrase 1 and the enzymatic activity of tankyrase 2 were measured by the ELISA method based on assessment of auto-poly(ADP-ribosyl)ation to evaluate the tankyrase inhibitory activity of the compound prepared in each of Compound Examples (test compound) (inhibitory activity against tankyrase 1 (TNKS1) and inhibitory activity against tankyrase 2 (TNKS2)). First, Flag-tagged tankyrase 1 (1,024-1, 327aa, SAM+PARP) and tankyrase 2 (613-1, 116aa, ANK5+SAM+PARP) were synthesized with a cell-free protein expression system, and diluted with a Tris buffer solution (50 mM Tris-HCl (pH 8.0), 150 mM NaCl, 10% glycerol). 50 μL of the diluted tankyrase 1 or tankyrase 2 was added to a plate with an anti-FLAG M2 monoclonal antibody immobilized thereon (Anti-FLAG High-Sensitivity M2-Coated Plate) (Sigma-Aldrich), and the mixture was left to stand overnight at 4° C. Thereafter, the plate was washed four times with a PBS (PBST) buffer containing 0.1% TritonX-100.
(§2) Subsequently, the test compound diluted with an assay buffer (50 mM Tris-HCl (pH 8.0), 4 mM MgCl2, 0.2 mM DTT) (DMSO was used as a control) was added to each well of the plate, and the mixture was left to stand at room temperature for 10 minutes. Thereafter, a biotin-labeled NAD solution (225 μM NAD, 25 μM 6-Biotin-17-NAD (Travigen, Inc.)) was added and mixed as a donor substrate, and the mixture was reacted at 30° C. for 45 minutes. To blank wells was added distilled water instead of the biotin-labeled NAD solution. After the reaction, the plate was washed with a PBST buffer four times. Thereafter, HRP (horseradish peroxidase)-labeled streptavidin (Travigen, Inc.) was diluted with a PBS buffer by 1,000 times, and added to each well, and the mixture was reacted at room temperature for 20 minutes. The plate was washed with a PBST buffer four times, a chemiluminescent substrate solution TACS-Sapphire (Travigen, Inc.) was then added to each well, the mixture was reacted at room temperature for 20 minutes, and thechemiluminescence intensity was measured using a chemiluminescence measuring apparatus.
(§3) The residual enzymatic activity in the presence of the test compound was determined from the following expression. On the basis of the residual enzymatic activity at each of multiple concentrations of the test compound, the enzyme inhibitory activity was calculated in terms of a 50%-inhibition concentration (IC50 value) using data analysis software Origin (LightStone Corp.). Residual activity (%)={(chemiluminescence intensity with test compound added)−(chemiluminescence intensity of blank)}/{(chemiluminescence intensity of control)−(chemiluminescence intensity of blank))

tankyrase 2 = target: T2, tankyrase 2 (Homo sapiens, UniProt Q9H2K2); experiment: Tankyrase inhibitory activity test (ELISA, auto-poly(ADP-ribosyl)ation), TNKS2; assay type: biochemical; conditions: Flag-tagged tankyrase 2 (ANK5+SAM+PARP), read-out: TNKS2 (inhibitory activity against tankyrase 2), IC50 rating
T2 construct: tankyrase 2 (613-1, 116aa, ANK5+SAM+PARP); made in house; host or cells: cell-free protein expression system
Description: as §1, §2, §3

[1] = system: human colorectal cancer cell line COLO-320DM; experiment: Cell proliferation inhibitory activity test (Celltiter-Glo); assay type: cell-based; conditions: 96 hours, read-out: COLO-320DM (cell proliferation inhibitory activity), G150 rating
Description: The cell proliferation inhibitory activity of the compound, which had been prepared in each of Compound Examples, against the human colorectal cancer cell line COLO-320DM was evaluated by Celltiter-Glo Luminescent Cell Viability Assay (Promega Corporation; G7573). COLO-320DM cells were cultured in RPMI-1640 medium containing 2 mM glutamine (Wako Pure Chemical Industries, Ltd; 189-02025) supplemented with 10% fetal bovine serum. The cultured cells were washed with PBS, and then dissociated with trypsin/EDTA, and a cell solution with 3×10^4 cells/mL was prepared.
Subsequently, the cell solution was seeded in a 96-well microplate (Thermo/Nunc Company; 136101) in an amount of 70 μL per well, and cultured overnight under the condition of 37° C. and 5% COz. The next day, a test compound solution obtained by diluting the test compound (DMSO solution) with a cell culture medium (final concentration of DMSO was 1%) was added in an amount of 10 μL per well, and the mixture was reacted under the condition of 37° C. and 5% CO2 for 96 hours (a 1% DMSO solution was used as a control). Thereafter, a Celltiter-Glo Luminescent Cell Viability Assay reagent was added (Promega Corporation; G7573) in an amount of 80 μL per well, the mixture was stirred with a shaker for 2 minutes while light was blocked with an aluminum foil, and the mixture was incubated at room temperature for 10 minutes.
Thereafter, a luminescence signal was measured with a luminometer (Biotech Company; Synergy). The ratio of cell proliferation in each compound addition group to cell proliferation in a control group containing no test compound solution, where cell proliferation in the control group is 100%, was determined, and the value of a compound concentration necessary for suppressing the amount of residual cells to 50% of that in the control (G150) was calculated as the cell proliferation inhibitory activity. For the COLO-320DM (cell proliferation inhibitory activity against COLO-320DM) of each test compound as measured through the above-mentioned method, a test compound having a G150 value of less than 1 μM was rated “A”, a test compound having a G150 value of 1 μM or more and less than 10 μM was rated “B”, a test compound having a G150 value of 10 μM or more was rated “C”, and an unevaluated test compound was designated as “NT”.

T1 sequence (O95271 1024-1327): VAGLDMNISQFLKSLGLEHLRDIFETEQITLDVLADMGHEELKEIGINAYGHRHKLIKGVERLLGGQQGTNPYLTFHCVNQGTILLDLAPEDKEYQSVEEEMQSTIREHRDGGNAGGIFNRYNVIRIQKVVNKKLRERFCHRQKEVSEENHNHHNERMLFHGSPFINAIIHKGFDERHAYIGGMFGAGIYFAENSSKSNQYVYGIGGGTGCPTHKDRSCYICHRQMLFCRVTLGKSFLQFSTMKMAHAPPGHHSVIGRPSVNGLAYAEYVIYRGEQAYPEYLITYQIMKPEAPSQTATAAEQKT
T2 sequence (Q9H2K2 613-1166): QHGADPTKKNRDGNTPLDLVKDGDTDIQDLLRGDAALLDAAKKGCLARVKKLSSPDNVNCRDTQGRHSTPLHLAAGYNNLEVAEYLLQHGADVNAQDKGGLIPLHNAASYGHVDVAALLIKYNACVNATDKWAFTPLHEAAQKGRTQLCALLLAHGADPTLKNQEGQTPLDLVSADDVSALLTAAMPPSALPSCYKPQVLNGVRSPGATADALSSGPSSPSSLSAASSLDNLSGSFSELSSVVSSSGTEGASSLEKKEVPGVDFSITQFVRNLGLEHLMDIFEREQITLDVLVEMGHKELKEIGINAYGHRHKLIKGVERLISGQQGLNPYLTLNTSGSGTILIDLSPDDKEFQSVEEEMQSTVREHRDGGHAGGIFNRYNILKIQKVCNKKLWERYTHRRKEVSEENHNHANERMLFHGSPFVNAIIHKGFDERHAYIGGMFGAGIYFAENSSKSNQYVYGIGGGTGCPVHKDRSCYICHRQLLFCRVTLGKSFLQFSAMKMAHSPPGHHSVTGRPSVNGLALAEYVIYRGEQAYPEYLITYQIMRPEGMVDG

| SMILES | IC50 (tankyrase 1) [nM] | IC50 (tankyrase 2) [nM] | IC50 [1] [nM] |
| --- | --- | --- | --- |
| CN1c2ccccc2C(=O)NC1c1c[nH]nc1-c1cccc(F)c1 (stereo not drawn) [Compound Example 102, 2-[3-(3-Fluorophenyl)-1H-pirazol-4-yl]-1-methyl-2,3-dihydroquinazolin-4-one] | < 20 | < 20 | 1000 to 10000 |
| CCOc1ccc(-c2n[nH]cc2C2NC(=O)c3cccc(C)c3N2)cc1 (stereo not drawn) [Compound Example 103, 2-[5-(4-Ethoxyphenyl)-1H-pyrazol-4-yl]-8-methyl-2,3-dihydro-1H-quinazolin-4-one] | < 20 | < 20 | 1000 to 10000 |
| COc1ccc(-c2n[nH]nc2C2NC(=O)c3ccccc3N2C)cc1 (stereo not drawn) [Compound Example 104, 2-[5-(4-Methoxyphenyl)-2H-1,2,3-triazol-4-yl]-1-methyl-2,3-dihydroquinazolin-4-one] | < 20 | < 20 | 1000 to 10000 |
| COc1ccc(-c2n[nH]nc2C2NC(=O)c3cccc(C)c3N2)cc1 (stereo not drawn) [Compound Example 105, 2-[5-(4-Methoxyphenyl)-2H-1,2,3-triazol-4-yl]-8-methyl-2,3-dihydro-1H-quinazolin-4-one] | < 20 | < 20 | < 1000 |
| COc1ccc(-c2n[nH]nc2C2NC(=O)c3cccc4c3N2CC4)cc1 (stereo not drawn) [Compound Example 106, 11-[5-(4-Methoxyphenyl)-2H-1,2,3-triazol-4-yl]-1,10-diazatricyclo[6.3.1.0^4,12]dodeca-4(12),5,7-trien-9-one] | < 20 | < 20 | 1000 to 10000 |
| [2H]C([2H])([2H])Oc1ccc(-c2n[nH]nc2C2NC(=O)c3cccc(C)c3N2)cc1 (stereo not drawn) [Compound Example 107, 8-Methyl-2-[5-(4-(trideuteriomethoxy)phenyl)-2H-1,2,3-triazol-4-yl]-2,3-dihydro-1H-quinazolin-4-one] | < 20 | < 20 | < 1000 |
| Cc1cccc2c1NC(c1n[nH]nc1-c1ccc(OCC(F)F)cc1)NC2=O (stereo not drawn) [Compound Example 108, 2-[4-[4-(2,2-Difluoroethoxy)phenyl]-2H-1,2,3-triazol-5-yl]-8-methyl-2,3-dihydro-1H-quinazolin-4-one] | < 20 | < 20 | 1000 to 10000 |
| COc1ccc(-c2n[nH]cc2C2NC(=O)c3ccccc3N2C)cc1 (stereo not drawn) [Compound Example 109, 2-[5-(4-Methoxyphenyl)-1H-pyrazol-4-yl]-1-methyl-2,3-dihydroquinazolin-4-one] | < 20 | < 20 | ≥ 10000 |
| O=c1[nH]c(N2CCC3(CC2)CN(CCO)c2cc(F)cc(F)c23)nc2c1CCCC2 [Example 1] | < 20 | < 20 | 1000 to 10000 |
| COc1cc(F)c2c(c1)N(CCO)C(=O)C21CCN(c2nc3c(c(=O)[nH]2)CCCN3C)CC1 [Example 2] |  |  | < 1000 |
| CN1CCCc2c1nc(N1CCC3(CC1)C(=O)N(CC#N)c1cc(F)cc(F)c13)[nH]c2=O [Example 3] |  |  | < 1000 |
| COc1cc(F)c2c(c1)N(CC#N)C(=O)C21CCN(c2nc3c(c(=O)[nH]2)CCCN3C)CC1 [Example 4] |  |  | < 1000 |
| CN1CCN(c2cc(F)c3c(c2)N(C)C(=O)C32CCN(c3nc4c(c(=O)[nH]3)CCCN4C)CC2)CC1 [Example 5] |  |  | < 1000 |
| CN1CCCc2c1nc(N1CCC3(CC1)C(=O)N(C)c1cc(OCC4COC4)cc(F)c13)[nH]c2=O [Example 6] |  |  | < 1000 |
| CN1CCCc2c1nc(N1CCC3(CC1)C(=O)N(C)c1cc(OC4CCOCC4)cc(F)c13)[nH]c2=O [Example 7] |  |  | < 1000 |
| CN1CCN(CCOc2cc(F)c3c(c2)N(CC(F)(F)F)C(=O)C32CCN(c3nc4c(c(=O)[nH]3)CCCN4C)CC2)CC1 [Example 8] |  |  | < 1000 |

| SMILES | IC50 (tankyrase 1) [nM] | IC50 (tankyrase 2) [nM] | IC50 [1] [nM] |
| --- | --- | --- | --- |
| CN1CCCc2c1nc(N1CCC3(CC1)C(=O)N(CC(F)(F)F)c1cc(OCC(=O)O)cc(F)c13)[nH]c2=O [Example 9] | < 20 | < 20 | < 1000 |
| CN1CCCc2c1nc(N1CCC3(CC1)C(=O)N(CC(F)(F)F)c1cc(OCc4nnn[nH]4)cc(F)c13)[nH]c2=O [Example 10] |  |  | < 1000 |
| CN1CCCc2c1nc(N1CCC3(CC1)C(=O)N(C)c1cc(N4CCC(C(=O)O)CC4)cc(F)c13)[nH]c2=O [Example 11] |  |  | < 1000 |
| CN1CCCc2c1nc(N1CCC3(CC1)C(=O)N(C)c1cc(N4CC(C(=O)O)C4)cc(F)c13)[nH]c2=O [Example 12] |  |  | < 1000 |
| CN1CCCc2c1nc(N1CCC3(CC1)C(=O)N(C)c1c(OC4CCOC4)ccc(Cl)c13)[nH]c2=O (stereo not drawn) [Example 13] | < 20 | < 20 | < 1000 |
| COc1ccc(Cl)c2c1N(CC(C)(C)O)C(=O)C21CCN(c2nc3c(c(=O)[nH]2)CCCN3C)CC1 [Example 14] |  |  | < 1000 |
| CN1CCCc2c(O)nc(N3CCC4(CC3)C(=O)N(CC(C)(C)O)c3cccc(F)c34)nc21 [Example 15] |  |  | < 1000 |
| CN1CCCc2c(O)nc(N3CCC4(CC3)OC(=O)c3cc(-c5cnn(C)c5)cc(F)c34)nc21 [Example 16] |  |  | < 1000 |
| CN1CCCc2c1nc(N1CCC3(CC1)C(=O)N(C)c1cc(N4CCN(S(C)(=O)=O)CC4)cc(F)c13)[nH]c2=O [Example 17] |  |  | < 1000 |
| COC(=O)N1CCN(c2cc(F)c3c(c2)N(C)C(=O)C32CCN(c3nc4c(c(=O)[nH]3)CCCN4C)CC2)CC1 [Example 18] |  |  | < 1000 |
| C[C@@H]1CN(c2cc(F)c3c(c2)N(C)C(=O)C32CCN(c3nc4c(c(=O)[nH]3)CCCN4C)CC2)C[C@H](C)O1 [Example 19] |  |  | < 1000 |
| COC1CCN(c2cc(F)c3c(c2)N(C)C(=O)C32CCN(c3nc4c(c(=O)[nH]3)CCCN4C)CC2)CC1 [Example 20] |  |  | < 1000 |
| CN1CCCc2c1nc(N1CCC3(CC1)C(=O)N(C)c1cc(N4CCC(C#N)CC4)cc(F)c13)[nH]c2=O [Example 21] |  |  | < 1000 |
| CN1CCCc2c1nc(N1CCC3(CC1)C(=O)N(C)c1cc(C4CCC(O)CC4)cc(F)c13)[nH]c2=O (stereo not drawn) [Example 22] | < 20 | 20 to 200 | < 1000 |
| C[C@@H]1CN(c2cc(F)c3c(c2)N(C)C(=O)C32CCN(c3nc4c(c(=O)[nH]3)CCCN4)CC2)C[C@H](C)O1 [Example 23] | < 20 | < 20 | < 1000 |
| C[C@@H]1CN(c2cc(F)c3c(c2)N(CC(F)(F)F)C(=O)C32CCN(c3nc4c(c(=O)[nH]3)CCCN4)CC2)C[C@H](C)O1 [Example 24] | < 20 | < 20 | < 1000 |
